In series [1] the test system is single-cycle replicable HIV NL4-3 virions in Hela cells. The series can be described thus: single cycle HIV-1 replication assay (inhibition of p24 expression, capture ELISA). It counts as cell-based. Here is the method: (§1) The anti-HIV-1 activity of target compounds was evaluated in a single cycle replication assay evaluated in our laboratory and reported previously. In this assay, the single-cycle replicable HIV NL4-3 virions (200 ng p24) were inoculated concurrently with compounds in different concentrations to the Hela cells. The inhibition rate (%) of p24 expression was measured by capture ELISA (Biomerieux, France) 72 hours after inoculation. Percentage inhibition of p24 expression in treated culture was calculated as inhibition rate of p24 (%). The XTT (sodium3-[1(phenylaminocarbonyl)-3,4-tetrazolium]-bis(4-methoxy-6-nitro)benzene sulfonic acid) proliferation assay was conducted to evaluate the cellular toxicity according to the kit instructions. The cytotoxic concentration that reduced the number of viable cells by 50% (CC50) was calculated after the determination of p24 load in the HIV-1 replication assay plates ([37]-[40]).
(§2) Fourteen 1,2-benzothiazine-3-carboxamide 1,1-dioxide derivatives containing different substituents at N-2 positions (12 and 13a-m) were synthesized and evaluated to inhibit the single-cycle HIV replication inhibition HeLa cell culture. Cytotoxicity of compounds was also tested in the same cell line to ensure the safety of compounds. Raltegravir was used as a positive control. Anti-HIV activity and cytotoxicity of compounds were expressed as EC50 and CC50, respectively. Selectivity Index (SI) was calculated using CC50/EC50 ratio.
For orientation: In an ELISA, binding on a coated surface is turned into a signal by an enzyme label.

Series [2] has as its system Hela cells. The series can be described thus: XTT proliferation assay for cellular toxicity. In kind it is cell-based. How it is done:
as §1, §2
For orientation: Tetrazolium assays rely on reduction of a dye to a coloured formazan, in cell work by metabolically active cells.

A short description of series [3]: XTT proliferation assay for cellular toxicity. It counts as cell-based. To be noted: human; cytotoxicity in Hela cells, XTT. Here is the method:
as §1, §2

In series [4] the test system is single-cycle replicable HIV NL4-3 virions in Hela cells. Further details: method as in previously reported (b6). To be noted: piroxicam value in Table 1, said in b54 to be previously reported; ref previously reported (b6); cited from earlier work.
[5] abbreviates: Human immunodeficiency virus 1, NL43, HeLa, 72 h.

The source of these data is paper PMC8653674, “Design, Synthesis, Docking Study and Biological Evaluation of 4-Hydroxy-2H-benzo[e][1,2]thiazine-3-carboxamide 1,1-dioxide Derivatives as Anti-HIV Agents” (Iranian Journal of Pharmaceutical Research : IJPR, 2021).

By EC50 is commonly meant the concentration that produces a half-maximal response. One may read the CC50 as the concentration that lowers cell viability or growth by half. High values mean better tolerance by the cells, low ones harm at low concentration. The melting point is the temperature of the solid-liquid transition.

Where two headings read alike, the source gives them in different places.

In the case of “2-(3,4-Dichlorobenzyl)-4-hydroxy-2H-benzo[e][1,2]thiazine-3-carboxamide 1,1-dioxide [Compound 13i]”, the EC50 in series [1] (anti-HIV activity, single-cycle HIV NL4-3 in Hela cells, p24 at 72 hours, read-out: EC50) came out at 110 µM. This compound also returned a cytotoxic concentration (CC50) in series [2] of 510 µM.
On to `NC(=O)C1=C(O)c2ccccc2S(=O)(=O)N1` [Compound 12, 4-hydroxy-2H-benzo[e][1,2]thiazine-3-carboxamide 1,1-dioxide], for which the melting point was 244 °C (dec.). Moreover, the midpoint of the response in series [1] (setting [5]), the EC50, lay at 105 µM. The 50% cytotoxic concentration (CC50) at 72 h in series [3] was determined as 950 µM.
With `CCN1C(C(N)=O)=C(O)c2ccccc2S1(=O)=O` [Compound 13a, 2-Ethyl-4-hydroxy-2H-benzo[e][1,2]thiazine-3-carboxamide 1,1-dioxide], in series [1] (setting [5]), the response was half-maximal at 80 µM (EC50). The compound also registered a half-maximal cytotoxic concentration (CC50) at 72 h in series [3] of 550 µM.
Regarding `NC(=O)C1=C(O)c2ccccc2S(=O)(=O)N1CC1CCCCC1` [Compound 13b, 2-(Cyclohexylmethyl)-4-hydroxy-2H-benzo[e][1,2]thiazine-3-carboxamide 1,1-dioxide], the melting point lay within 263 to 264 °C. Also, in series [1] (setting [5]), the half-maximal effective concentration (EC50) came to 100 µM. Also, the midpoint of cytotoxicity in series [3], the CC50 at 72 h, lay at 400 µM.
Regarding `NC(=O)C1=C(O)c2ccccc2S(=O)(=O)N1Cc1ccccc1` [Compound 13c, 2-Benzyl-4-hydroxy-2H-benzo[e][1,2]thiazine-3-carboxamide 1,1-dioxide], the melting point fell in the range of 270 to 275 °C. Also, in series [1] (setting [5]), the concentration for a half-maximal effect (EC50) was found to be 45 µM. In addition, the half-maximal cytotoxic concentration (CC50) at 72 h in series [3] is 600 µM.
In turn, `Cc1ccc(CN2C(C(N)=O)=C(O)c3ccccc3S2(=O)=O)cc1` [Compound 13d, 4-Hydroxy-2-(4-methylbenzyl)-2H-benzo[e][1,2]thiazine-3-carboxamide 1,1-dioxide] had a 50% effective concentration (EC50) in series [1] (setting [5]) of 25 µM. Further, the half-maximal cytotoxic concentration (CC50) at 72 h in series [3] stood at 680 µM.
In turn, `Cc1ccccc1CN1C(C(N)=O)=C(O)c2ccccc2S1(=O)=O` [Compound 13e, 4-Hydroxy-2-(2-methylbenzyl)-2H-benzo[e][1,2]thiazine-3-carboxamide 1,1-dioxide] came in with a melting point of 268 to 271 °C. In series [1] (setting [5]), this compound registered an EC50 of 55 µM. The compound further showed a half-maximal cytotoxic concentration (CC50) at 72 h in series [3] of 650 µM.
The matching figures for `COc1cccc(CN2C(C(N)=O)=C(O)c3ccccc3S2(=O)=O)c1` [Compound 13f, 4-Hydroxy-2-(3-methoxybenzyl)-2H-benzo[e][1,2]thiazine-3-carboxamide 1,1-dioxide]: 273 to 275 °C, 50 µM and 640 µM.
For `NC(=O)C1=C(O)c2ccccc2S(=O)(=O)N1Cc1ccccc1Cl` [Compound 13g, 2-(2-Chlorobenzyl)-4-hydroxy-2H-benzo[e][1,2]thiazine-3-carboxamide 1,1-dioxide], the concentration for a half-maximal effect (EC50) in series [1] (setting [5]) was 40 µM. The compound further showed a CC50 at 72 h in series [3] of 650 µM.
The matching figures for `NC(=O)C1=C(O)c2ccccc2S(=O)(=O)N1Cc1ccc(Cl)cc1` [Compound 13h, 2-(4-Chlorobenzyl)-4-hydroxy-2H-benzo[e][1,2]thiazine-3-carboxamide 1,1-dioxide]: 55 µM and 610 µM.
`NC(=O)C1=C(O)c2ccccc2S(=O)(=O)N1Cc1ccccc1F` [Compound 13j, 2-(2-Fluorobenzyl)-4-hydroxy-2H-benzo[e][1,2]thiazine-3-carboxamide 1,1-dioxide] had a melting point of 268 to 273 °C. Further, in series [1] (setting [5]), the EC50 came out at 35 µM. In series [3], this compound registered a half-maximal cytotoxic concentration (CC50) at 72 h of 680 µM.
The matching figures for `NC(=O)C1=C(O)c2ccccc2S(=O)(=O)N1Cc1cccc(F)c1` [Compound 13k, 2-(3-Fluorobenzyl)-4-hydroxy-2H-benzo[e][1,2]thiazine-3-carboxamide 1,1-dioxide]: 271 to 275 °C, 60 µM and 550 µM.
The compound `NC(=O)C1=C(O)c2ccccc2S(=O)(=O)N1Cc1ccc(F)cc1` [Compound 13l, 2-(4-Fluorobenzyl)-4-hydroxy-2H-benzo[e][1,2]thiazine-3-carboxamide 1,1-dioxide] came in with an EC50 in series [1] (setting [5]) of 20 µM. Besides, the CC50 at 72 h in series [3] came out at 650 µM.
Take `NC(=O)C1=C(O)c2ccccc2S(=O)(=O)N1Cc1ccc([N+](=O)[O-])cc1` [Compound 13m, 4-Hydroxy-2-(4-nitrobenzyl)-2H-benzo[e][1,2]thiazine-3-carboxamide 1,1-dioxide]: the melting point was 288 °C (dec.). For the same compound, the EC50 in series [1] (setting [5]) turned out to be 25 µM. The CC50 at 72 h in series [3] is 650 µM.
With `CN1C(C(=O)Nc2ccccn2)=C(O)c2ccccc2S1(=O)=O` [Piroxicam, piroxicam, reference compound], it took 900 µM to reach half-maximal cytotoxicity in series [3] (CC50 at 72 h). Besides, in series [4], the EC50 is 120 µM.
The compound `Cc1nnc(C(=O)NC(C)(C)c2nc(C(=O)NCc3ccc(F)cc3)c(O)c(=O)n2C)o1` [Raltegravir, raltegravir, reference compound] registered a concentration for a half-maximal effect (EC50) in series [1] (setting [5]) of 0.9 µM. For the same compound, the CC50 at 72 h in series [3] was more than 500 µM.
